Results published in paper PMC7926495, “Preclinical Pharmacokinetics and Biodistribution of Anticancer Dinuclear Palladium(II)-Spermine Complex (Pd2Spm) in Mice” (Pharmaceuticals, 2021).

Experiments:
[1] = parameters: species or system Balb/c mice; conditions: mouse, in vivo; for Tmax: ip
Method: After drug administration, five animals from each group were euthanized at selected time-points (0.5, 1, 6, 12, 24 and 48 h) with pentobarbital intraperitoneal injection (120 mg/kg) followed by cardiac puncture for blood collection. Blood serum was separated after leaving the blood to coagulate for 30 min at room temperature and centrifugation (at 500× g, and 4 °C for 15 min). […] Both blood serum and serum ultrafiltrate were aliquoted (50 μL) and stored at −80 °C until ICP-MS analysis. Right brain hemisphere, liver, lungs, heart, right kidney, ovaries, abdominal white adipose tissue and abdominal mammary glands were excised at the same time, washed in cold PBS, blotted dry on filter paper and weighed. Solid tissues were freeze-dried (0.016 mBar, −80.8 °C, 48 h; Telstar®, model Cryodos Barcelona, Spain) and stored hermetically sealed at −80 °C until ICP-MS analysis.
Briefly, 50 μL of blood serum, 50 μL of serum ultrafiltrate and weighed entire freeze-dried organs/tissues (up to 50 mg) were placed into 10 mL polypropylene conical tubes. In the case of liver, for which the weight surpassed 50 mg, the tissue was first pulverized with a Precellys® Evolution tissue homogenizer (Bertin-Instruments, Montigny-le-Bretonneux, France) using 2.8 mm stainless steel beads (two cycles of 10 s at 6000 rpm speed) and accurately weighed (50 mg) in tubes. Samples were digested directly in tubes with 0.9 mL of HNO3 (≥69.0% w/w) plus 0.3 mL of HCl (37% w/w) in a water bath at 90 °C for 1 h. Sample digests were cooled to room temperature, 0.5 mL of a 100 µg/L internal standards (IS) solution was added and the final volume was adjusted to 5 mL with ultrapure water (final concentration of IS = 10 µg/L). Prior to ICP-MS analysis, samples were further diluted 5-fold with a diluent solution (2% HNO3 + 3% HCl + 10 µg/L IS). An iCAP^TM Q (Thermo Fisher Scientific, Bremen, Germany) ICP-MS was used for the determination of Pd and Pt in the obtained solutions. Calibration standards ranging from 0.025 to 100 µg/L were prepared from the 100 mg/L multi-element commercial TraceCERT®, ICH Q3D oral, Standard 2 solution. The IS solution was prepared at 100 µg/L by appropriate dilution of the ICP-MS-200.8-IS-1 solution.
The mean concentrations of Pd or Pt in serum and serum ultrafiltrate were plotted logarithmically versus time. Non-compartmental analysis was performed on sparse data with 1/Y^2 weighting, which was selected based on the highest correlation coefficients and agreement between observed versus predicted pharmacokinetic parameters. […] The area under the curve (AUC) from time zero to the last time with quantified concentration (AUC0-48h) was calculated by a linear log trapezoidal (linear up log down) method. The AUC from time zero to infinity (AUC0−∞) was extrapolated as AUC0−48 h + C48h/λz, where C48h is the last measured concentration, and λz is the elimination constant rate calculated using linear regression of the terminal portion of the log–linear serum concentration–time curve. The drug half-life (t1/2) was calculated as ln2/λz. The rate of total clearance (CL/F) of the compound was calculated as the administered metal dose divided by the AUC0−∞. The distribution volume based on the terminal phase (Vz/F) was calculated as dose/[λz.AUC0−∞].

[2] = system: HCC-1143 cells; assay: In vitro cellular drug uptake/accumulation by ICP-MS; assay type: cell-based, human; conditions: 24 h; for dependence of cellular drug uptake on drug concentration in medium: 2-8 µM
Method: (§1) The in vitro studies were performed on human triple-negative (lack of estrogen receptors, progesterone receptors and HER2 overexpression) breast cancer cell lines MDA-MB-231 and HCC-1143, which were purchased from the Leibniz Institute DSMZ-German Collection of Microorganisms and Cell Cultures GmbH, Germany. MDA-MB-231 were cultured in DMEM-HG cell culture medium supplemented with 10% (v/v) FBS, and HCC-1143 cells were cultured in RPMI-1640 cell culture medium supplemented with 20% (v/v) FBS. Cells were maintained in a sterile environment at 37 °C with a 5% CO2 humidified atmosphere and were routinely tested for mycoplasma contamination.
(§2) The intracellular Pt and Pd accumulation in MDA-MB-231 and HCC-1143 cells was analyzed using ICP-MS. First, 3 × 10^4/cm^2 cells were seeded in T75 culture flasks and allowed to attach for 24 h. […] The cells were trypsinized, washed twice with ice-cold 0.9% saline solution, and 10^6 cells were pelleted and freeze-dried. The lyophilized cell pellets were digested and analyzed using the same analytical procedure described for the pharmacokinetic study. […] The protein concentration used for the data normalization was determined from identical samples that were prepared in parallel and quantified with the Bradford protein assay.

[3] = system: MDA-MB-231 cells; assay: as above; assay type: cell-based, human; conditions: 24 h; for dependence of cellular drug uptake on drug concentration in medium: 2-8 µM
Method: as §1, §2

[4] = system: plasma proteins; conditions: mouse, in vivo
Method: After drug administration, five animals from each group were euthanized at selected time-points (0.5, 1, 6, 12, 24 and 48 h) with pentobarbital intraperitoneal injection (120 mg/kg) followed by cardiac puncture for blood collection. Blood serum was separated after leaving the blood to coagulate for 30 min at room temperature and centrifugation (at 500× g, and 4 °C for 15 min). […] Both blood serum and serum ultrafiltrate were aliquoted (50 μL) and stored at −80 °C until ICP-MS analysis.
Briefly, 50 μL of blood serum, 50 μL of serum ultrafiltrate and weighed entire freeze-dried organs/tissues (up to 50 mg) were placed into 10 mL polypropylene conical tubes. In the case of liver, for which the weight surpassed 50 mg, the tissue was first pulverized with a Precellys® Evolution tissue homogenizer (Bertin-Instruments, Montigny-le-Bretonneux, France) using 2.8 mm stainless steel beads (two cycles of 10 s at 6000 rpm speed) and accurately weighed (50 mg) in tubes. Samples were digested directly in tubes with 0.9 mL of HNO3 (≥69.0% w/w) plus 0.3 mL of HCl (37% w/w) in a water bath at 90 °C for 1 h. Sample digests were cooled to room temperature, 0.5 mL of a 100 µg/L internal standards (IS) solution was added and the final volume was adjusted to 5 mL with ultrapure water (final concentration of IS = 10 µg/L). […]

[5] = mouse, in vivo
Method: After drug administration, five animals from each group were euthanized at selected time-points (0.5, 1, 6, 12, 24 and 48 h) with pentobarbital intraperitoneal injection (120 mg/kg) followed by cardiac puncture for blood collection. Blood serum was separated after leaving the blood to coagulate for 30 min at room temperature and centrifugation (at 500× g, and 4 °C for 15 min). […] Both blood serum and serum ultrafiltrate were aliquoted (50 μL) and stored at −80 °C until ICP-MS analysis. Right brain hemisphere, liver, lungs, heart, right kidney, ovaries, abdominal white adipose tissue and abdominal mammary glands were excised at the same time, washed in cold PBS, blotted dry on filter paper and weighed. […]
The mean concentrations of Pd or Pt in serum and serum ultrafiltrate were plotted logarithmically versus time. […] The area under the curve (AUC) from time zero to the last time with quantified concentration (AUC0-48h) was calculated by a linear log trapezoidal (linear up log down) method. […] The drug half-life (t1/2) was calculated as ln2/λz. The rate of total clearance (CL/F) of the compound was calculated as the administered metal dose divided by the AUC0−∞. The distribution volume based on the terminal phase (Vz/F) was calculated as dose/[λz.AUC0−∞].

[6] = system: H2AX histone (γH2AX); parameters: method as in PMID 21371266; conditions: cited from earlier work
[7] = system: albumin / plasma proteins; conditions: rodents, 3 h post-administration; cited from earlier work

N.N.[Cl][Pt][Cl] [Cisplatin, cis-dichlorodiammine platinum(II), reference compound]
concentration of free Pd/Pt in serum ultrafiltrate at 48 h [1]: 4.1 ng/mL
Tmax [1]: 30 min
dependence of cellular drug uptake on drug concentration in medium [2]: increase linearly with drug concentration
dependence of cellular drug uptake on drug concentration in medium [3]: increase linearly with drug concentration

[Cl][Pd-2]1([Cl])[NH2+]CCC[NH+]1CCCC[NH+]1CCC[NH2+][Pd-2]1([Cl])[Cl] (stereo not drawn) [Pd2Spm]
concentration of free Pd/Pt in serum ultrafiltrate at 48 h [1]: 2.3 ng/mL
Tmax [1]: 30 min
dependence of cellular drug uptake on drug concentration in medium [2]: increase linearly with drug concentration
intracellular accumulation compared to cisplatin ([2]; equimolar 2-8 µM): lower intracellular Pd2Spm increase as compared to cisplatin
dependence of cellular drug uptake on drug concentration in medium [3]: increase linearly with drug concentration
intracellular accumulation compared to cisplatin ([3]; equimolar 2-8 µM): lower intracellular Pd2Spm increase as compared to cisplatin
decrease of fraction bound to plasma proteins at 48 h compared to the preceding period [4]: 3.1%
higher accumulation of Pd relative to Pt [5]: 74.2%
lower accumulation of Pd than Pt (dose-normalized AUC) [5]: 82.7%
phosphorylation of H2AX histone (γH2AX) compared to cisplatin [6]: more extensive phosphorylation of H2AX histone

O=C(O)C(=O)O.[NH-][C@@H]1CCCC[C@H]1[NH-].[Pt+2] [oxaliplatin]
bound to albumin (mostly via irreversible covalent bonds) [7]: > 85%
